# Test: in vitro
# Conditions: human, hela cells, % viability
row,SMILES,"viability at 28.5 h, 10 µM"
1,Cc1ccc(SCCCn2cnc3ccccc32)cc1 [CBK267821G],93.7%
2,CN1CCN(C(c2ccccc2)C(O)C(=O)c2c[nH]c3ccccc23)CC1 (centres unmarked) [CBK267823],103%
3,CC1(C)[N+]([O-])=CC(c2ccc(-c3ccccc3)cc2)=[N+]([O-])C1(C)C [CBK267825],98.7%
4,O=C(CSCc1ccccc1Cl)NNC(=O)c1cccnc1 [CBK267826],113%
5,COc1cccc(NC(=O)c2ccc(N(C)Cc3ccccc3)c([N+](=O)[O-])c2)c1 [CBK267827],95.1%
6,O=C(CNC(=O)C1CCCCC1)NNC(=O)c1ccccc1Br [CBK267828],102%
7,O=C(Nc1ccc(/C=C/c2ccccc2)cc1)c1ccc(COc2ccccc2)o1 [CBK267829],91.3%
8,Cc1nnc(SCc2nc3ccccc3c(=O)[nH]2)[nH]1 [CBK267830],90%
9,Cn1cccc1CNCCc1ccc(S(N)(=O)=O)cc1 [CBK267831C],98.7%
10,COc1ccc(CC(=O)Nc2ccc(S(=O)(=O)NC(C)C)cc2)cc1 [CBK267833],93.2%
11,Cc1ccc(NS(=O)(=O)c2ccc(OCC(=O)N3CCN(C)CC3)c(C)c2)cc1 [CBK267834],110%
12,COc1ccc(Cl)cc1NC(=O)CN(c1cccc(C(C)=O)c1)S(C)(=O)=O [CBK267835],108%
13,Cc1ccccc1NC(=O)NCCCN1CCN(C)CC1 [CBK267837],85.2%
14,COc1cc(/C=C(/C#N)c2nc3ccccc3[nH]2)ccc1OCc1ccc(C(=O)O)o1 [CBK267839],90.7%
15,COc1ccc(C(=O)NC(=N)NCCc2c[nH]c3ccccc23)cc1 [CBK267840],111%
16,O=C(CSCc1ccc(Br)cc1)Nc1ccc(S(=O)(=O)N2CCOCC2)cc1 [CBK267845],97.1%
17,COc1ccc(OC)c(NC(=O)CNC(=O)c2ccccc2F)c1 [CBK267846],91.5%
18,COc1ccc(C)cc1S(=O)(=O)N(CC(=O)O)Cc1ccccc1 [CBK267847],108%
19,O=C(O)c1cc(-c2ccc(F)cc2)n[nH]1 [CBK267848],96.1%
20,CC(=O)Nc1ccc(C(=O)CSc2nnc(C)o2)cc1 [CBK267851],107%
21,O=C(OCc1cccc(C(=O)c2ccccc2)c1)c1ccc(-c2nnc(-c3ccccc3)o2)cc1 [CBK267852],104%

row,SMILES,"viability at 28.5 h, 10 µM"
1,Nc1nnc(SCC(=O)NCc2ccc3c(c2)OCO3)s1 [CBK267853],101%
2,CS(=O)(=O)N(CC(=O)Nc1ccccc1C(F)(F)F)Cc1ccc(Cl)cc1 [CBK267854],108%
3,COc1c(C)cc(Br)cc1C(=O)NC(=S)Nc1ccccc1N1CCN(C)CC1 [CBK267855C],97.1%
4,Fc1ccc(OCc2ccc(-c3nnn[nH]3)cc2)cc1 [CBK267859],106%
5,COC(=O)c1ccccc1NC(=O)CNC(=O)c1ccc(Cl)cc1Cl [CBK267860],105%
6,N#Cc1ccc(N2CCN(CCCNC(=O)Nc3ccccc3)CC2)cc1 [CBK267861],95%
7,O=[N+]([O-])c1cccc(S(=O)(=O)NCCSc2ccccc2)c1 [CBK267862],94.1%
8,N#CCCn1cc(C(=O)Nc2ccc(C(=O)O)cc2)c(-c2cc3ccccc3o2)n1 [CBK267866],96.6%
9,Cn1c(SCC(=O)Nc2ccnc3ccccc23)nnc1-c1ccncc1 [CBK267867],105%
10,O=C(NCCSCc1ccco1)Nc1ccc(Cl)cc1 [CBK267869],97.3%
11,O=C(NC(=S)Nc1cccc(-c2nc3ncccc3o2)c1)c1ccc(-c2cccc([N+](=O)[O-])c2)o1 [CBK267870],83.4%
12,O=C(CSc1nc2ccccc2c2nc3ccccc3n12)Nc1cccc(Cl)c1 [CBK267872],94.2%
13,Cc1ncc([N+](=O)[O-])n1Cc1nnc(S)n1C [CBK267873],95.4%
14,CCS(=O)(=O)c1nc2ccccc2n1CC(=O)Nc1ccccc1C(=O)OC [CBK267877],90%
15,Cc1ccccc1CSc1nc2ccc([N+](=O)[O-])cc2[nH]1 [CBK267879],96.2%
16,NCCCNc1ccc(C(=O)Nc2ccc(Cl)cc2)cc1[N+](=O)[O-] [CBK267880],116%
17,COCCCn1c(CCC(=O)O)ccc1-c1ccc(F)cc1 [CBK267886],104%
18,Cc1cc(OC(C)C(=O)Nc2ccc(S(=O)(=O)Nc3onc(C)c3C)cc2)cc(C)c1Cl (centres unmarked) [CBK267887],98.7%
19,CCn1c(COc2ccccc2)nnc1Sc1ccc([N+](=O)[O-])cc1C=O [CBK267888],105%
20,COc1ccc(S(=O)(=O)N(C)CC(=O)Nc2ccc(C(N)=O)cc2)cc1Cl [CBK267891],109%
21,Nc1n[nH]c(SCC(=O)N2CCN(C(c3ccccc3)c3ccccc3)CC2)n1 [CBK267893],86.5%

row,SMILES,"viability at 28.5 h, 10 µM"
1,COc1ccc(S(=O)(=O)N(C)CC(=O)N2CCOCC2)cc1C [CBK267898],95.8%
2,S=C1NCN(Cc2ccc3c(c2)OCO3)CN1 [CBK267899],87.1%
3,O=C(CSc1nnc(-c2ccncc2)n1-c1ccccc1)Nc1ccnc2ccccc12 [CBK267900],101%
4,O=C(CNC(=O)C1CCCCC1)NNC(=O)c1sc2ccccc2c1Cl [CBK267903],98.8%
5,COc1ccc(NC(=O)CSc2nc(N)cc(O)n2)c([N+](=O)[O-])c1 [CBK267904],101%
6,O=C(O)CCCC(=O)Nc1cc(C(=O)O)ccc1Cl [CBK267907],116%
7,CCN(CC(=O)Nc1ccc(OC)c(Cl)c1)S(=O)(=O)c1ccc2ccccc2c1 [CBK267910],92.9%
8,CC(C)c1nnc(SCc2ccc(CSc3nnc(C(C)C)n3N)cc2)n1N [CBK267911],101%
9,CCN1CCN(C(=O)CN(CC)S(=O)(=O)c2ccc3ccccc3c2)CC1 [CBK267913],101%
10,Cc1ccc(CNC(=O)CSc2nc(N)n[nH]2)cc1 [CBK267914],103%
11,NS(=O)(=O)c1ccc(NC(=O)c2ccc(COc3ccccc3)o2)cc1 [CBK267915],104%
12,COc1ccc(S(=O)(=O)N(C)CC(=O)Nc2ccc(Br)cc2F)cc1Cl [CBK267916],81.3%
13,Cc1cc(C(=O)O)ccc1NC(=O)CCCC(=O)O [CBK267917],90.8%
14,CCn1cc(C(=O)O)c(=O)c2cc(F)c(N3CCN(C(=S)Nc4ccc(F)c(Cl)c4)CC3)cc21 [CBK267921],97.5%
15,CCOc1cc(/C=C(/C#N)c2nc3ccccc3[nH]2)ccc1OCc1ccc(C(=O)O)o1 [CBK267923],88.9%
16,CCOc1ccc(N(Cc2cc3cc(C)ccc3nc2O)S(=O)(=O)c2ccccc2)cc1 [CBK267924],120%
17,Nc1cc(O)nc(SCC(=O)N2CCN(c3ccccc3)CC2)n1 [CBK267925],86%
18,O=C(O)Cn1nnc(-c2ccc(C(=O)O)cc2)n1 [CBK267926],85%
19,N#C/C(=C\c1ccc(N2CCN(c3ccc(F)cc3)CC2)c([N+](=O)[O-])c1)c1nn(-c2ccccc2)c(N)c1C#N [CBK267927],95.7%
20,CCn1cc(C(=O)O)c(=O)c2cnc(N3CCN(C(=S)Nc4cc5oc6ccccc6c5cc4OC)CC3)nc21 [CBK267929],101%

# Source: PMC12040169 (PLOS Biology, 2025)
